From patent publication US20090209550A1, “SUBSTITUTED TRIAZOLOPYRIDINES” (AUSPEX PHARMACEUTICALS, INC., priority 2008, published 2009)
Where a name gives a salt, the structure may show the parent alone.

Test: In vitro liver microsomal stability assay
Type: in vitro ADME
Conditions: '+' marks the bin; human liver microsomes 1 mg per mL protein, NADPH-generating system, 1 μM, 37° C.; compared to non-isotopically enriched drug
Experimental: Liver microsomal stability assays are conducted at 1 mg per mL liver microsome protein with an NADPH-generating system in 2% NaHCO3 (2.2 mM NADPH, 25.6 mM glucose 6-phosphate, 6 units per mL glucose 6-phosphate dehydrogenase and 3.3 mM MgCl2). Test compounds are prepared as solutions in 20% acetonitrile-water and added to the assay mixture (final assay concentration 1 μM) and incubated at 37° C. Final concentration of acetonitrile in the assay should be <1%. Aliquots (50 μL) are taken out at times 0, 0.25, […], and 1 hours, and diluted with ice cold acetonitrile (200 μL) to stop the reactions. Samples are centrifuged at 12,000 RPM for 10 min to precipitate proteins. Supernatants are transferred to micro centrifuge tubes and stored for LC/MS/MS analysis of the degradation half-life of the test compounds.

% increase of HLM degradation half-life, 0%-50% | SMILES | also measured
+ (0%-50%) | [2H]C([2H])(N1CCN(c2cccc(Cl)c2)CC1)C([2H])([2H])C([2H])([2H])n1nc2ccccn2c1=O [Example 5, 2-(3-(4-(3-Chlorophenyl)piperazin-1-yl)propyl-1,1,2,2,3,3-d6)-[1,2,4]triazolo[4,3-a]pyridin-3(2H)one hydrochloride] | –
+ (0%-50%) | [2H]C([2H])(CC([2H])([2H])n1nc2ccccn2c1=O)N1CCN(c2cccc(Cl)c2)CC1 [Example 4, 2-(3-(4-(3-Chlorophenyl)piperazin-1-yl)propyl-1,1,3,3-d4)-[1,2,4]triazolo[4,3-a]pyridin-3(2H)one hydrochloride] | –
+ (0%-50%) | [2H]C([2H])(CCN1CCN(c2cccc(Cl)c2)CC1)n1nc2ccccn2c1=O [Example 3, 2-(3-(4-(3-Chlorophenyl)piperazin-1-yl)propyl-1,1-d2)-[1,2,4]triazolo[4,3-a]pyridin-3(2H)one hydrochloride] | –
– | [2H]C([2H])(CCn1nc2ccccn2c1=O)N1CCN(c2cccc(Cl)c2)CC1 [Example 2, 2-(3-(4-(3-Chlorophenyl)piperazin-1-yl)propyl-3,3-d2)-[1,2,4]triazolo[4,3-a]pyridin-3(2H)one hydrochloride] | % increase of HLM degradation half-life, >150%: + (>150%)
– | O=c1n(CCCN2CCN(c3cccc(Cl)c3)CC2)nc2ccccn12 [Example 1, 2-(3-(4-(3-Chlorophenyl)piperazin-1-yl)propyl)-[1,2,4]triazolo[4,3-a]pyridin-3(2H)one, reference compound] | % increase of HLM degradation half-life, 50%-150%: + (50%-150%)
